From PubChem BioAssay AID179 (DTP/NCI, 2004)
Values joined by “and” are separate entries in the source; they are usually repeats but may differ in a detail not shown here. Identical values can stand only once. Active and inactive are the calls of the source.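 Rule for the calls: active = compounds giving half or more protection of infected cells from virus-caused growth loss, again on retest; inactive = the rest.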

System: CEM cells HIV-1 protection, formazan growth assay
Test: NCI AIDS Antiviral Assay
Details: for IC50: measured here: growth of uninfected CEM cells
Method in brief: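 CEM (human) cells, HIV-1 infected vs uninfected, 5-point dosing, formazan growth read-out. Retest threshold 50% protection.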

Row | Structure (SMILES) | EC50 | IC50 | outcome
1 | CCC[CH2][Sn]([CH2]CCC)([O]C(=O)c1ccc(C)c(N)c1)[O]C(=O)c1ccc(C)c(N)c1 | > 18.6 µM | 0.457 µM | 
2 | CCOC(=O)c1c(-c2ccc(Br)cc2)ccn1C | > 200 µM | 74.1 µM | 
3 | COc1cccc(CCCNC(=O)Cc2ccccc2CO)c1 | > 200 µM | > 200 µM | 
4 | O=c1cc(O)nc(CO)[nH]1 | > 200 µM | > 200 µM | 
5 | [Co].[O-]c1cccnc1C=Nc1ccccc1.[OH3+] | > 240 µM | 35.5 µM | 
6 | CCN(CCCl)c1cc(CN(C)C)cc(NC(=O)c2ccc(C(=O)Nc3cc(CN(C)C)cc(N(CC)CCCl)c3)cc2)c1 | > 2 µM | 0.000631 µM | 
7 | O=C1N(CCO)C2=CCCCC23c2[nH]c4ccccc4c2CCN13 (stereo unspecified) | > 200 µM | > 100 µM | 
8 | CCOc1ccccc1N1C(=O)C(=O)C(c2nc3ccccc3o2)C(=O)C1=O |  |  | inactive
9 | COc1ccc(C2CCc3cc4c(cc3/C2=N/OC(C)=O)OCO4)cc1OC (stereo unspecified) |  |  | inactive
10 | CCOC(=O)CP(=S)(S)c1ccccc1 (stereo unspecified) | > 5500 µM | > 5500 µM | 
11 | CC(=O)N1C(Nc2ccccc2)CCN1c1ccccc1 (stereo unspecified) | > 200 µM | 11.2 µM | 
12 | COc1cc(OC)c(-n2[nH]c(=O)n(C)c2=O)c(OC)c1 | > 200 µM | > 200 µM | 
13 | COc1ccc(C2SC(N)=Nc3c2c(C)nn3C(=O)c2ccc(Cl)cc2)cc1OC (stereo unspecified) | > 200 µM | > 200 µM | 
14 | Cc1c2n(c3ccccc13)CC1CON(C)C21 (stereo unspecified) | > 1100 µM | 355 µM | 
15 | Cc1ccc(-c2nnc3s/c(=C\c4ccc(N(C)C)cc4)c(=O)n23)cc1 | > 27.5 µM | 16.2 µM | 
16 | CCOC(=O)[C@@H](NC(=O)OC(C)(C)C)[C@@H](O)C(=O)OCC | > 200 µM | > 200 µM | 
17 | CCCOC(=O)c1cc(C(=CCC[C@H]2CC[C@@]3(C)[C@@H](CC[C@@H]4[C@@H]3CC[C@]3(C)[C@@H](C(C)CCCC(C)C)CC[C@@H]43)C2)c2cc(Cl)c(O)c(C(=O)OCCC)c2)cc(Cl)c1O (stereo partly specified) | > 151 µM | > 151 µM | 
18 | O=C(NCCCl)c1cc(C(F)(F)F)cc(C(F)(F)F)c1 |  |  | inactive
19 | O=c1nc2sc3ccc4ccccc4c3n2nc1-c1ccccc1 | > 49 µM | > 49 µM | 
20 | CC(=O)OCCCOCn1c(Cc2ccccc2)c(C(C)C)c(=O)[nH]c1=O | 0.0794 µM | 89.1 µM | 
21 | Cc1ccsc1C(=O)C(CC(=O)c1cccs1)c1ccsc1 (stereo unspecified) |  |  | inactive
22 | Cc1ccc(/C(C#N)=C/c2ccc(N(C)C)cc2)cc1 | > 200 µM | 1.29 µM | 

Row | Structure (SMILES) | EC50 | IC50 | outcome
23 | Cc1cccc2c(=O)c3c(O)cc(O)cc3n(C)c12 | 145 µM | > 200 µM | 
24 | Cc1nc2c(=O)[nH]c(=O)n(C)c2[nH]c1=O | > 34.7 µM | > 34.7 µM | 
25 | CCOC(=O)c1sc2c(c1OC(=O)c1ccc(OC)cc1)c(=O)n(-c1ccccc1)c(=S)n2-c1ccccc1 | > 200 µM | 38.9 µM | 
26 | COc1cc2c(cc1OC)C13CC(=O)N(C(C)=O)N1CCCN3C2=O (stereo unspecified) | > 145 µM | > 145 µM | 
27 | NC(=S)N/N=C1\CCCc2ccccc21 | > 162 µM | 81.3 µM | 
28 | O=C(O)CNc1cc(-c2ccccc2)nc(NCC(=O)O)n1 |  |  | inactive
29 | C[N+](C)(CCOc1ccccc1)Cc1cccs1 | > 200 µM | > 200 µM | 
30 | O=C(Nc1ccc([N+](=O)[O-])cc1)N(c1ccccc1)c1cc(N2CCOCC2)ccn1 | > 200 µM | 39.8 µM | 
31 | CCCCNC(=S)Nc1nc(C(=O)NNC(=S)NCc2ccccc2)cs1 | > 126 µM | 26.3 µM | 
32 | Cc1ccc(/C=C2\CN(C)CC3C(c4ccc(C)cc4)=C(C#N)C(=O)NC23)cc1 (stereo unspecified) | > 200 µM | > 200 µM | 
33 | CC12CC(=O)C3C(C(=O)C1)C32C (stereo unspecified) | > 200 µM | > 200 µM | 
34 | O=[N+]([O-])c1cc(C(F)(F)F)ccc1SSc1ccc(C(F)(F)F)cc1[N+](=O)[O-] | > 200 µM | 24.5 µM and 13.2 µM | 
35 | O=C(Nc1ccc(/C=C\c2ccc(NC(=O)c3cc(S(=O)(=O)O)ccc3O)cc2S(=O)(=O)O)c(S(=O)(=O)O)c1)c1cc(S(=O)(=O)O)ccc1O | 70.8 µM | > 100 µM | 
36 | Cn1c2ccccc2c2oc(-c3nn[nH]n3)cc(=O)c21 | > 126 µM | > 126 µM | 
37 | C=C1C[C@@H]2C[C@@H](C)CC(O)[C@]2(CCCN)C1O (stereo partly specified) |  |  | inactive
38 | CSc1nc2[nH]c(=O)n(OS(=O)(=O)c3ccccc3)c(=O)c2n1C | > 200 µM | 115 µM | 
39 | CNc1cc(OCc2ccccc2)c(OC)cc1C(=O)N1CCC[C@H]1CO | > 200 µM | 42.7 µM | 
40 | O=C(OCc1ccccc1)N1CC[C@@H](O)[C@@H](CNC23CC4CC(CC(C4)C2)C3)C1 | > 631 µM | 23.4 µM | 
41 | Cc1cc(N=O)ccc1O | > 200 µM | 3.63 µM | 
42 | Cc1coc2c1C(=O)C(=O)c1c-2ccc2c1CCCC2(C)C | > 200 µM | 25.7 µM | 
43 | CCC(=O)NC(C(=O)NC(C(=O)NC(CC(C)C)C(O)CC(=O)NC(C)C(=O)NC(CC(C)C)C(O)CC(=O)O)C(C)C)C(C)C (stereo unspecified) | > 7.59 µM | > 7.59 µM | 
44 | COC(=O)c1ccccc1NCc1cc(O)ccc1O | > 200 µM | 30.9 µM | 

Row | Structure (SMILES) | EC50 | IC50 | outcome
45 | Cc1ccc(O)c(Cc2cc(C)cc(Cc3cc(C)ccc3O)c2O)c1 | > 102 µM | 20 µM | 
46 | CSc1nncc2[nH]cnc12 | > 200 µM | > 200 µM | 
47 | O=C1OC2(OC2c2ccc(Cl)cc2)c2ccccc21 (stereo unspecified) | > 69.2 µM | > 69.2 µM | 
48 | CCc1cccc(CC)c1NC(=S)N/C=C(\C#N)C(=O)c1ccc2ccccc2c1 |  |  | inactive
49 | CC(C)=CCC/C(C)=C/CC12OC(C)(C)C(Cl)CC1(Cl)C(=O)c1c(O)cc(O)cc1C2=O (stereo unspecified) | > 37.2 µM | 11 µM | 
50 | CNC(=O)Nn1c(SC)nc2ccccc21 | > 200 µM | > 200 µM | 
51 | O=C(OCc1ccccc1)c1ccc(NCc2cc(O)ccc2O)cc1 |  |  | inactive
52 | CCOC(=O)c1cc(C2(O)CCN(CC(C)CC)C2=O)c(-c2cc(C)no2)[nH]1 (stereo unspecified) | > 200 µM | > 200 µM | 
53 | CC(C)CC(NC(=O)OCc1ccccc1)C(=O)NCCCCC(N)C(=O)NC(CCCCNC(=O)C(CC(C)C)NC(=O)OCc1ccccc1)C(=O)NC(CCCCNC(=O)C(CC(C)C)NC(=O)OCc1ccccc1)C(=O)NC(CCCCNC(=O)C(CC(C)C)NC(=O)OCc1ccccc1)C(=O)NC(CCCCNC(=O)C(CC(C)C)NC(=O)OCc1ccccc1)C(=O)NC(CCCCNC(=O)C(CC(C)C)NC(=O)OCc1ccccc1)C(=O)O (stereo unspecified) | > 100 µM | > 100 µM | 
54 | CC1=C[C@H]2C[C@@]3(C)O[C@@H]([C@]4(C)CC[C@H]([C@@H](C)C(=O)O)OO4)CC3C(C)(C)[C@H]2CC1 (stereo partly specified) |  |  | inactive
55 | O=C(Nc1ccccn1)Nc1ccccn1 | > 200 µM | 107 µM | 
56 | c1ccc2c(C(c3c[nH]c4ccccc34)c3c[nH]c4ccccc34)c[nH]c2c1 | 0.0631 µM | 19.1 µM | 
57 | CCCCCCCCCCCCN(CCCCCCCCCCCC)CC(=O)Nc1ccc(S(=O)(=O)c2ccc(NC(=O)CN(CCCCCCCCCCCC)CCCCCCCCCCCC)cc2)cc1 | > 50.1 µM | 2.57 µM | 
58 | O=C(Nc1ccccc1)C(=O)C(C(=O)c1ccccc1F)C1OC(=O)c2ccccc21 (stereo unspecified) | > 309 µM | 17.4 µM | 
59 | OC12CCC3(O)c4ccccc4C3C1c1ccccc12 (stereo unspecified) | > 200 µM | > 200 µM | 
60 | C=C1CN=C(Nc2ccc(Cl)cc2)S1 | > 200 µM | 75.9 µM | 
61 | CSC1(CC(=O)N2CCCCC2)C(=O)Nc2ccccc21 (stereo unspecified) | > 200 µM | > 200 µM | 
62 | O=c1[nH]nc(Cc2ccc(Cl)cc2)n1CCO | > 200 µM | > 200 µM | 
63 | CCOC(=O)c1nc2ccc(C(F)(F)F)cc2nc1Oc1ccc(OC)cc1 | > 200 µM | > 200 µM | 
64 | Clc1ccc2c(NCCCCN3OC3c3ccccc3)ccnc2c1 (stereo unspecified) | > 200 µM | 5.01 µM | 
65 | CCCCCOC(=S)SSSC(=S)OCCCCC | > 200 µM | 7.76 µM | 
66 | O=C(Nc1cc(Cl)c(Cl)cc1Cl)C(=O)C1C(=O)NC(=S)NC1=O |  |  | inactive

Row | Structure (SMILES) | EC50 | IC50 | outcome
67 | Cc1ccccc1Nc1nc2c(s1)C(=O)c1ccccc1C2=O |  |  | inactive
68 | C=C[C@]1(O)CCC[C@]2(C)C(=O)CCC12C (stereo partly specified) |  |  | inactive
69 | O=C1C2C(C(=O)N1OS(=O)(=O)c1ccccc1)N(Cc1ccccc1)C(=O)N2Cc1ccccc1 (stereo unspecified) | > 7.59 µM | > 7.59 µM | 
70 | COC(=O)c1cc2c(c3c1CC(Cc1ccccc1)C3=O)CCC2 (stereo unspecified) | > 200 µM | 33.1 µM | 
71 | Cc1cc(C)c2c(c1)NP(=S)(c1ccccc1)N2 (stereo unspecified) | > 200 µM | > 200 µM | 
72 | CCOP(=O)(OCC)/C(C#N)=C/c1ccco1 | 69.2 µM | > 200 µM | 
73 | Cc1nc2c(o1)C(=Nc1ccccc1)c1nc(C)oc1C2=Nc1ccccc1 |  |  | inactive
74 | O=C(C/C(=N\NC(=O)C[n+]1ccccc1)C(=O)Nc1nc2ccc([N+](=O)[O-])cc2s1)CC(c1ccccc1)c1c(O)c2ccccc2oc1=O (stereo unspecified) | > 2.75 µM | > 2.75 µM | 
75 | CCN(CC)C1=CC(=O)C(=O)c2cccnc21 |  |  | inactive
76 | CC1(C)CCc2cc3c(O)c(-c4ccccc4)c(=O)oc3cc2O1 | > 200 µM | 77.6 µM | 
77 | N#CNC1=NC(C(=O)O)CC(=O)N1CCc1c[nH]c2ccccc12 (stereo unspecified) | > 200 µM | 50.1 µM | 
78 | COc1cccc(C(=O)N[C@@H]2[C@H](O)[C@@H](CO)O[C@H]2n2cnc3c(N)ncnc32)c1 | > 200 µM | > 200 µM | 
79 | NC(=O)C1N=NSC1NC(=O)c1ccc([N+](=O)[O-])cc1 (stereo unspecified) | > 200 µM | 26.9 µM | 
80 | Cc1ccc(-c2n[nH]c(=O)n2/N=C\c2ccc([N+](=O)[O-])cc2)cc1 | > 200 µM | 58.9 µM | 
81 | Cc1cc(N(CCC#N)CCC#N)ccc1/C(N=Nc1ccc([N+](=O)[O-])cc1)=N\NC(=O)c1cc(Cl)ccc1C(=O)c1ccccc1 | > 200 µM | 11.2 µM | 
82 | CCn1ncc2c1nc(-c1ccccc1)c[n+]2[O-] | > 200 µM | > 200 µM | 
83 | CCC1CN(C(=O)c2ccccc2)C(Cc2c[nH]c3ccccc23)C(=O)C1CC(=O)OC (stereo unspecified) | > 200 µM | 79.4 µM | 
84 | CC1=NN(C(=O)c2ccc(Cl)cc2)C(=O)/C1=C/c1ccc(O)cc1 | > 15.1 µM | > 15.1 µM | 
85 | Cc1cc2ccccc2n1CC(=O)NCC(C)C | > 200 µM | > 200 µM | 
